≈ marks a conversion by molar mass, not a printed value.
How the values were obtained:
Format in all cases: functional
Candida albicans [1] = experiment: Antifungal activity against Candida albicans NRRL Y-477 at 100 ug/ml after 24 hrs by agar well diffusion assay; details: NRRL Y-477, 24 h, read-out: DIZ
Bacillus subtilis [2] = experiment: Antimicrobial activity against Bacillus subtilis ATCC 6633 after 24 hrs by two-fold serial dilution method; details: ATCC 6633, 24 h
Staphylococcus aureus [3] = experiment: Antimicrobial activity against Staphylococcus aureus ATCC 29213 after 24 hrs by two-fold serial dilution method; details: ATCC 29213, 24 h
Bacillus subtilis [4] = experiment: Antimicrobial activity against Bacillus subtilis ATCC 6633 at 100 ug/ml after 24 hrs by agar well diffusion assay; details: ATCC 6633, 24 h, read-out: DIZ
Micrococcus luteus [5] = experiment: Antimicrobial activity against Sarcina lutea at 100 ug/ml after 24 hrs by agar well diffusion assay; details: read-out: DIZ
Pseudomonas aeruginosa [6] = experiment: Antimicrobial activity against Pseudomonas aeruginosa ATCC 27953 after 24 hrs by two-fold serial dilution method; details: ATCC 27953, 24 h
Saccharomyces cerevisiae [7] = experiment: Antifungal activity against Saccharomyces cerevisiae at 100 ug/ml after 24 hrs by agar well diffusion assay; details: read-out: DIZ
Escherichia coli [8] = experiment: Antimicrobial activity against Escherichia coli ATCC 25922 after 24 hrs by two-fold serial dilution method; details: ATCC 25922, 24 h
Priestia megaterium [9] = experiment: Antimicrobial activity against Bacillus megaterium ATCC 9885 after 24 hrs by two-fold serial dilution method; details: ATCC 9885, 24 h
Priestia megaterium [10] = experiment: Antimicrobial activity against Bacillus megaterium ATCC 9885 at 100 ug/ml after 24 hrs by agar well diffusion assay; details: ATCC 9885, 24 h, read-out: DIZ
Escherichia coli [11] = experiment: Antimicrobial activity against Escherichia coli ATCC 25922 at 100 ug/ml after 24 hrs by agar well diffusion assay; details: ATCC 25922, 24 h, read-out: DIZ
Candida albicans [12] = experiment: Antifungal activity against Candida albicans NRRL Y-477 by two-fold serial dilution method
Staphylococcus aureus [13] = experiment: Antimicrobial activity against Staphylococcus aureus ATCC 29213 at 100 ug/ml after 24 hrs by agar well diffusion assay; details: ATCC 29213, 24 h, read-out: DIZ
Micrococcus luteus [14] = experiment: Antimicrobial activity against Sarcina lutea after 24 hrs by two-fold serial dilution method
Pseudomonas aeruginosa [15] = experiment: Antimicrobial activity against Pseudomonas aeruginosa ATCC 27953 at 100 ug/ml after 24 hrs by agar well diffusion assay; details: ATCC 27953, 24 h, read-out: DIZ
Saccharomyces cerevisiae [16] = experiment: Antifungal activity against Saccharomyces cerevisiae by two-fold serial dilution method
Klebsiella pneumoniae [17] = experiment: Antimicrobial activity against Klebsiella pneumoniae ATCC 13883 at 100 ug/ml after 24 hrs by agar well diffusion assay; details: ATCC 13883, 24 h, read-out: DIZ
Klebsiella pneumoniae [18] = experiment: Antimicrobial activity against Klebsiella pneumoniae ATCC 13883 after 24 hrs by two-fold serial dilution method; details: ATCC 13883, 24 h

Row | Structure (SMILES) | zone of inhibition at 100 µg/mL (Candida albicans [1]) [mm] | MIC (Bacillus subtilis [2]) [µg/mL] | MIC (Staphylococcus aureus [3]) [µg/mL] | zone of inhibition at 100 µg/mL (Bacillus subtilis [4]) [mm] | zone of inhibition at 100 µg/mL (Micrococcus luteus [5]) [mm] | MIC (Pseudomonas aeruginosa [6]) [µg/mL] | zone of inhibition at 100 µg/mL (Saccharomyces cerevisiae [7]) [mm] | MIC (Escherichia coli [8]) [µg/mL] | MIC (Priestia megaterium [9]) [µg/mL] | zone of inhibition at 100 µg/mL (Priestia megaterium [10]) [mm] | zone of inhibition at 100 µg/mL (Escherichia coli [11]) [mm] | MIC (Candida albicans [12]) [µg/mL] | zone of inhibition at 100 µg/mL (Staphylococcus aureus [13]) [mm] | MIC (Micrococcus luteus [14]) [µg/mL] | zone of inhibition at 100 µg/mL (Pseudomonas aeruginosa [15]) [mm] | MIC (Saccharomyces cerevisiae [16]) [µg/mL] | zone of inhibition at 100 µg/mL (Klebsiella pneumoniae [17]) [mm] | MIC (Klebsiella pneumoniae [18]) [µg/mL]
1 | Cc1ccc(-n2nnc(C(=O)/C=C/c3ccc(N4CCCCC4)cc3)c2C)cc1 | 18 | 33 (≈ 85.4 µM) | 132 (≈ 342 µM) | 18 | 28 | 132 (≈ 342 µM) | 20 | 8.25 (≈ 21.3 µM) | 33 (≈ 85.4 µM) | 20 | 28 | 16.5 (≈ 42.7 µM) | 16 | 33 (≈ 85.4 µM) | 16 | 66 (≈ 171 µM) | – | –
2 | Cc1ccc(-n2nnc(C(=O)/C=C/c3ccc(F)cc3)c2C)cc1 | 22 | 16.5 (≈ 51.3 µM) | 16.5 (≈ 51.3 µM) | 26 | 16 | 132 (≈ 411 µM) | 23 | – | 16.5 (≈ 51.3 µM) | 24 | – | 16.5 (≈ 51.3 µM) | 20 | 132 (≈ 411 µM) | 16 | 16.5 (≈ 51.3 µM) | 16 | 132 (≈ 411 µM)
3 | Cc1ccc(-n2nnc(C3=NN(C(=S)Nc4ccccc4)C(c4ccc(C#N)cc4)C3)c2C)cc1 (centres undefined) | 22 | – | 33 (≈ 69.1 µM) | – | 24 | 66 (≈ 138 µM) | 24 | – | – | – | – | 33 (≈ 69.1 µM) | 20 | 33 (≈ 69.1 µM) | 22 | 8.25 (≈ 17.3 µM) | – | –
4 | Cc1ccc(-n2nnc(C3=NNC(c4ccccc4)C3)c2C)cc1 (centres undefined) | 28 | 8.25 (≈ 26 µM) | 8.25 (≈ 26 µM) | 32 | 30 | 8.25 (≈ 26 µM) | 28 | 132 (≈ 416 µM) | 132 (≈ 416 µM) | 16 | 16 | 8.25 (≈ 26 µM) | 34 | 16.5 (≈ 52 µM) | 28 | 8.25 (≈ 26 µM) | – | –
5 | Cc1ccc(-n2nnc(C3=NNC(c4ccc(F)cc4)C3)c2C)cc1 (centres undefined) | 16 | – | 33 (≈ 98.4 µM) | – | 18 | 8.25 (≈ 24.6 µM) | 18 | 132 (≈ 394 µM) | 132 (≈ 394 µM) | 16 | 16 | 132 (≈ 394 µM) | 20 | 66 (≈ 197 µM) | 30 | 66 (≈ 197 µM) | 16 | 132 (≈ 394 µM)
6 | Cc1ccc(-n2nnc(C3=NN(c4nc(-c5ccc(Br)cc5)cs4)C(c4ccc(F)cc4)C3)c2C)cc1 (centres undefined) | 30 | 33 (≈ 57.5 µM) | 8.25 (≈ 14.4 µM) | 26 | 22 | – | 30 | 16.5 (≈ 28.8 µM) | 33 (≈ 57.5 µM) | 22 | 22 | 8.25 (≈ 14.4 µM) | 30 | 66 (≈ 115 µM) | – | 8.25 (≈ 14.4 µM) | 24 | 16.5 (≈ 28.8 µM)
7 | Cc1ccc(-n2nnc(C3=NNC(c4ccc(N5CCCCC5)cc4)C3)c2C)cc1 (centres undefined) | 18 | 132 (≈ 330 µM) | 132 (≈ 330 µM) | 16 | 18 | – | 18 | – | – | – | – | 132 (≈ 330 µM) | 18 | 33 (≈ 82.4 µM) | – | 66 (≈ 165 µM) | – | –
8 | Cc1ccc(-n2nnc(C3=NN(C(=S)Nc4ccccc4)C(c4ccccc4)C3)c2C)cc1 (centres undefined) | 24 | – | 8.25 (≈ 18.2 µM) | 26 | 20 | 132 (≈ 292 µM) | 26 | 8.25 (≈ 18.2 µM) | 8.25 (≈ 18.2 µM) | 24 | – | 16.5 (≈ 36.5 µM) | 18 | 66 (≈ 146 µM) | 24 | 16.5 (≈ 36.5 µM) | 18 | 16.5 (≈ 36.5 µM)
9 | Cc1ccc(-n2nnc(C3=NN(C4=NC(=O)CS4)C(c4ccc(F)cc4)C3)c2C)cc1 (centres undefined) | 16 | – | – | – | 16 | 33 (≈ 75.9 µM) | 18 | 8.25 (≈ 19 µM) | 8.25 (≈ 19 µM) | 30 | 28 | 132 (≈ 304 µM) | – | 132 (≈ 304 µM) | 20 | 66 (≈ 152 µM) | – | –
10 | Cc1ccc(-n2nnc(C(=O)/C=C/c3ccccc3)c2C)cc1 | 24 | 33 (≈ 109 µM) | 16.5 (≈ 54.4 µM) | 26 | 26 | 8.25 (≈ 27.2 µM) | 22 | 8.25 (≈ 27.2 µM) | – | – | 32 | 16.5 (≈ 54.4 µM) | 22 | 16.5 (≈ 54.4 µM) | 28 | 66 (≈ 218 µM) | 16 | 132 (≈ 435 µM)
11 | Cc1ccc(-n2nnc(C(=O)/C=C/c3ccc(C#N)cc3)c2C)cc1 | 24 | 8.25 (≈ 25.1 µM) | 16.5 (≈ 50.2 µM) | 28 | 24 | 8.25 (≈ 25.1 µM) | 30 | 132 (≈ 402 µM) | – | – | 16 | 16.5 (≈ 50.2 µM) | 23 | 16.5 (≈ 50.2 µM) | 26 | 8.25 (≈ 25.1 µM) | 24 | 16.5 (≈ 50.2 µM)
12 | Cc1ccc(-n2nnc(C3=NN(C(=S)NC(=O)c4ccccc4)C(c4ccc(N5CCCCC5)cc4)C3)c2C)cc1 (centres undefined) | 30 | 33 (≈ 58.5 µM) | 132 (≈ 234 µM) | 24 | 23 | 33 (≈ 58.5 µM) | 30 | 8.25 (≈ 14.6 µM) | 8.25 (≈ 14.6 µM) | 30 | 32 | 8.25 (≈ 14.6 µM) | 16 | 66 (≈ 117 µM) | 26 | 8.25 (≈ 14.6 µM) | – | –
13 | Cc1ccc(-n2nnc(C3=NN(C(N)=S)C(c4ccc(F)cc4)C3)c2C)cc1 (centres undefined) | 26 | – | – | – | 16 | 16.5 (≈ 41.8 µM) | 30 | 16.5 (≈ 41.8 µM) | 132 (≈ 335 µM) | 18 | 22 | 16.5 (≈ 41.8 µM) | – | 132 (≈ 335 µM) | 26 | 8.25 (≈ 20.9 µM) | – | –
14 | Cc1ccc(-n2nnc(C3=NNC(c4ccc(C#N)cc4)C3)c2C)cc1 (centres undefined) | 28 | 33 (≈ 96.4 µM) | – | 26 | 28 | 8.25 (≈ 24.1 µM) | 30 | 8.25 (≈ 24.1 µM) | 33 (≈ 96.4 µM) | 24 | 30 | 8.25 (≈ 24.1 µM) | – | 8.25 (≈ 24.1 µM) | 28 | 8.25 (≈ 24.1 µM) | 30 | 8.25 (≈ 24.1 µM)
15 | Cc1ccc(-n2nnc(C3=NN(C(=S)Nc4ccccc4)C(c4ccc(F)cc4)C3)c2C)cc1 (centres undefined) | 22 | 16.5 (≈ 35.1 µM) | 132 (≈ 281 µM) | 27 | 20 | – | 24 | – | 16.5 (≈ 35.1 µM) | 20 | – | 16.5 (≈ 35.1 µM) | 16 | 16.5 (≈ 35.1 µM) | – | 16.5 (≈ 35.1 µM) | 22 | 16.5 (≈ 35.1 µM)
16 | Cc1ccc(-n2nnc(C3=NN(c4nc(-c5ccc(Cl)cc5)cs4)C(c4ccc(F)cc4)C3)c2C)cc1 (centres undefined) | 25 | 8.25 (≈ 15.6 µM) | 8.25 (≈ 15.6 µM) | 30 | 22 | 16.5 (≈ 31.2 µM) | 28 | 33 (≈ 62.4 µM) | – | – | 29 | 16.5 (≈ 31.2 µM) | 28 | 66 (≈ 125 µM) | 24 | 16.5 (≈ 31.2 µM) | 28 | 16.5 (≈ 31.2 µM)

Reference: ChEMBL document CHEMBL2021863, “Design and synthesis of new 4-pyrazolin-3-yl-1,2,3-triazoles and 1,2,3-triazol-4-yl-pyrazolin-1-ylthiazoles as potential antimicrobial agents” (2012)
